# “And” between values parts separate entries of the source, which are not always exact repeats. Equal values may be shown once.
# Columns and labels:
# [1] = molecular target: CDK2 (Homo sapiens, UniProt P24941); assay: biochemical; details: read-out: %Ctrl @ 2000nM
# [2] = molecular target: ULK1 (Homo sapiens, UniProt O75385); assay: biochemical; details: read-out: %Ctrl @ 2000nM
# [3] = molecular target: PDGFRB (Homo sapiens, UniProt P09619); assay: biochemical; details: read-out: %Ctrl @ 2000nM
# [4] = molecular target: AMPK-alpha2 (Homo sapiens, UniProt P54646); assay: biochemical; details: read-out: %Ctrl @ 2000nM
# [5] = molecular target: RSK3(Kin.Dom.1-N-terminal) (Homo sapiens, UniProt Q15349); assay: biochemical; details: read-out: %Ctrl @ 2000nM
# Chain of RSK3(Kin.Dom.1-N-terminal) (Q15349 1-388 limits assumed): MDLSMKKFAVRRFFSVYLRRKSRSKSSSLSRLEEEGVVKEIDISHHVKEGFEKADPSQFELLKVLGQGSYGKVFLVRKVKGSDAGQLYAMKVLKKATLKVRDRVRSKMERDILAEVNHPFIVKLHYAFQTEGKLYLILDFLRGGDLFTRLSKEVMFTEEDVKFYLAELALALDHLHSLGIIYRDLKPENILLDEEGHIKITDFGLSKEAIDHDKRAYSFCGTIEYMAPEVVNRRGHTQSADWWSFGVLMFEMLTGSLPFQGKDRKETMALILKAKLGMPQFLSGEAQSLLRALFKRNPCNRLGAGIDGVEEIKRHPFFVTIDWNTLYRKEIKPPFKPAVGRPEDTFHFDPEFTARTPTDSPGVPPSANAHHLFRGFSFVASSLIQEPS
# [6] = molecular target: STK35 (Homo sapiens, UniProt Q8TDR2); assay: biochemical; details: read-out: %Ctrl @ 2000nM
# [7] = molecular target: FGFR2 (Homo sapiens, UniProt P21802); assay: biochemical; details: read-out: %Ctrl @ 2000nM
# [8] = molecular target: CSNK1A1L (Homo sapiens, UniProt Q8N752); assay: biochemical; details: read-out: %Ctrl @ 2000nM
# [9] = molecular target: TXK (Homo sapiens, UniProt P42681); assay: biochemical; details: read-out: %Ctrl @ 2000nM
# [10] = molecular target: WNK1 (Homo sapiens, UniProt Q9H4A3); assay: biochemical; details: read-out: %Ctrl @ 2000nM
# [11] = molecular target: MLK1 (Homo sapiens, UniProt P80192); assay: biochemical; details: read-out: %Ctrl @ 2000nM
# [12] = molecular target: AURKC (Homo sapiens, UniProt Q9UQB9); assay: biochemical; details: read-out: %Ctrl @ 2000nM
# Chain of AURKC (Q9UQB9 whole entry): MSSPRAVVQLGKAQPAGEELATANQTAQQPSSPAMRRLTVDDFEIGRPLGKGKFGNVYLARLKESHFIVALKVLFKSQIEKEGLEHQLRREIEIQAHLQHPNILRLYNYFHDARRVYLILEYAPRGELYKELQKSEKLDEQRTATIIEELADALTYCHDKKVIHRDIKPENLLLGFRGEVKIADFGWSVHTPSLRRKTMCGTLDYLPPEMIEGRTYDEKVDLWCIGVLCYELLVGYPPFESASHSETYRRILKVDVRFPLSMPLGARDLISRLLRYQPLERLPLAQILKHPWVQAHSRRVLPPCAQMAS
# [13] = molecular target: MAPKAPK5 (Homo sapiens, UniProt Q8IW41); assay: biochemical; details: read-out: %Ctrl @ 2000nM
# [14] = molecular target: LTK (Homo sapiens, UniProt P29376); assay: biochemical; details: read-out: %Ctrl @ 2000nM
# [15] = molecular target: PCTK3 (Homo sapiens, UniProt Q07002); assay: biochemical; details: read-out: %Ctrl @ 2000nM
# [16] = system: AKT (S129) in 786-O cells
# [17] = molecular target: PLK1 (Homo sapiens, UniProt P53350); assay: biochemical; details: read-out: %Ctrl @ 2000nM
# [18] = molecular target: MLCK (Homo sapiens, UniProt Q32MK0); assay: biochemical; details: read-out: %Ctrl @ 2000nM
# Chain of MLCK (Q32MK0 whole entry): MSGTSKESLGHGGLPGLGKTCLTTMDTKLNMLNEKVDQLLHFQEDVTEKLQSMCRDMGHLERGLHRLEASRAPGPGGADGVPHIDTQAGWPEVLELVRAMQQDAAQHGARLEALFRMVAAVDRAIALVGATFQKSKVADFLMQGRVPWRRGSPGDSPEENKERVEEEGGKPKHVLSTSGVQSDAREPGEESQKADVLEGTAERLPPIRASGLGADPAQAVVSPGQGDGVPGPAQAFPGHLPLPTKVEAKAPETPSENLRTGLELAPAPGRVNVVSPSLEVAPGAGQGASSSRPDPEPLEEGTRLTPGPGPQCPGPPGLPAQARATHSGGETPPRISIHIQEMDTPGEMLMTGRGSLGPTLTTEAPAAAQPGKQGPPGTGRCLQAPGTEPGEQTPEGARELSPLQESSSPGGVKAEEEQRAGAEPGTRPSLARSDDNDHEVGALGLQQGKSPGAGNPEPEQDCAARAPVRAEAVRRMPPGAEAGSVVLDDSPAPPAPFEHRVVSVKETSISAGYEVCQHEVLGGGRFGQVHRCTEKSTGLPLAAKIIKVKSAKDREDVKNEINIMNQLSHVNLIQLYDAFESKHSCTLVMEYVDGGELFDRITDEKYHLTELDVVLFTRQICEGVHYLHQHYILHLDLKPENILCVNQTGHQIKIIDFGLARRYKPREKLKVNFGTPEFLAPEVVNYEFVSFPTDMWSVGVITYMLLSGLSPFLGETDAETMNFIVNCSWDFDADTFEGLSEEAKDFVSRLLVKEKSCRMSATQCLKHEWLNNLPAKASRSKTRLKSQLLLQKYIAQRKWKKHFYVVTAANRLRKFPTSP
# [19] = molecular target: JNK2 (Homo sapiens, UniProt P45984); assay: biochemical; details: read-out: %Ctrl @ 2000nM
# [20] = molecular target: PFPK5(P.falciparum) (Plasmodium falciparum, UniProt P61075); assay: biochemical; details: read-out: %Ctrl @ 2000nM
# [21] = molecular target: FGR (Homo sapiens, UniProt P09769); assay: biochemical; details: read-out: %Ctrl @ 2000nM
# [22] = molecular target: HASPIN (Homo sapiens, UniProt Q8TF76); assay: biochemical; details: read-out: %Ctrl @ 2000nM
# [23] = molecular target: CDKL5 (Homo sapiens, UniProt O76039); assay: biochemical; details: read-out: %Ctrl @ 2000nM
# [24] = molecular target: EGFR(S752-I759del) (Homo sapiens, UniProt P00533, DEL752-759); assay: biochemical; details: read-out: %Ctrl @ 2000nM
# [25] = molecular target: LIMK2 (Homo sapiens, UniProt P53671); assay: biochemical; details: read-out: %Ctrl @ 2000nM
# [26] = molecular target: PIK3C2B (Homo sapiens, UniProt O00750); assay: biochemical; details: read-out: %Ctrl @ 2000nM
# [27] = molecular target: EIF2AK1 (Homo sapiens, UniProt Q9BQI3); assay: biochemical; details: read-out: %Ctrl @ 2000nM
# [28] = molecular target: CLK1 (Homo sapiens, UniProt P49759); assay: biochemical; details: read-out: %Ctrl @ 2000nM
# [29] = molecular target: PRP4 (Homo sapiens, UniProt Q13523); assay: biochemical; details: read-out: %Ctrl @ 2000nM
# [30] = molecular target: CDK9 (Homo sapiens, UniProt P50750); assay: biochemical; details: read-out: %Ctrl @ 2000nM
# [31] = molecular target: TSSK3 (Homo sapiens, UniProt Q96PN8); assay: biochemical; details: read-out: %Ctrl @ 2000nM
# [32] = molecular target: PKN1 (Homo sapiens, UniProt Q16512); assay: biochemical; details: read-out: %Ctrl @ 2000nM
# [33] = molecular target: GSK3A (Homo sapiens, UniProt P49840); assay: biochemical; details: read-out: %Ctrl @ 2000nM
# Chain of GSK3A (P49840 whole entry): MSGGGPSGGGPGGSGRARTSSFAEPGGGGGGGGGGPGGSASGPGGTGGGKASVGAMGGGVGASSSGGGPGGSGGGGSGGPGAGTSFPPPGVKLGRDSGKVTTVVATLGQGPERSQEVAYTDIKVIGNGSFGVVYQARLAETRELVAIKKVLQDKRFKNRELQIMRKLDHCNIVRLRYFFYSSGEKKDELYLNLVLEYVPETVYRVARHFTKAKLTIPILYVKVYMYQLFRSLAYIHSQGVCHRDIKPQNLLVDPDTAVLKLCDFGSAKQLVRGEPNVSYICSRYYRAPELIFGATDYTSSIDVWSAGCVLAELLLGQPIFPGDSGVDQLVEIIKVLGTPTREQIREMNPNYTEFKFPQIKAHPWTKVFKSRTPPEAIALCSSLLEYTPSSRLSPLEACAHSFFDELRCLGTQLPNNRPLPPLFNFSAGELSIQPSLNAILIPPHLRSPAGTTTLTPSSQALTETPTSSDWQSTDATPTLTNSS
# [34] = system: RPTEC (renal proximal tubule epithelial cells); assay: cells; details: Homo sapiens, read-out: IC50 cell viability
# [35] = molecular target: PAK6 (Homo sapiens, UniProt Q9NQU5); assay: biochemical; details: read-out: %Ctrl @ 2000nM
# [36] = molecular target: LATS1 (Homo sapiens, UniProt O95835); assay: biochemical; details: read-out: %Ctrl @ 2000nM
# [37] = molecular target: CSF1R-autoinhibited (Homo sapiens, UniProt P07333); assay: biochemical; details: read-out: %Ctrl @ 2000nM
# Chain of CSF1R-autoinhibited (P07333 542-922 limits assumed): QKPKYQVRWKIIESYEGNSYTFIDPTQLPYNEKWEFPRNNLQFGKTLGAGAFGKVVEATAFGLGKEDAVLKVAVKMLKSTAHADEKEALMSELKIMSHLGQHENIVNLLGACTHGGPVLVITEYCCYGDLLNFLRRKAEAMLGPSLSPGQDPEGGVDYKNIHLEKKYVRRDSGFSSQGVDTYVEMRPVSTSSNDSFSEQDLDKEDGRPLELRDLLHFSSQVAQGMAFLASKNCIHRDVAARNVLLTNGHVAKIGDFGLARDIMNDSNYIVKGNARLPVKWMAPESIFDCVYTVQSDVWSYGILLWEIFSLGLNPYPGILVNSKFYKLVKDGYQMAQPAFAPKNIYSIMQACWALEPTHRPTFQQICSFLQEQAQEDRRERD
# [38] = molecular target: PIM3 (Homo sapiens, UniProt Q86V86); assay: biochemical; details: read-out: %Ctrl @ 2000nM
# [39] = molecular target: RIPK1 (Homo sapiens, UniProt Q13546); assay: biochemical; details: read-out: %Ctrl @ 2000nM
# Chain of RIPK1 (Q13546 whole entry): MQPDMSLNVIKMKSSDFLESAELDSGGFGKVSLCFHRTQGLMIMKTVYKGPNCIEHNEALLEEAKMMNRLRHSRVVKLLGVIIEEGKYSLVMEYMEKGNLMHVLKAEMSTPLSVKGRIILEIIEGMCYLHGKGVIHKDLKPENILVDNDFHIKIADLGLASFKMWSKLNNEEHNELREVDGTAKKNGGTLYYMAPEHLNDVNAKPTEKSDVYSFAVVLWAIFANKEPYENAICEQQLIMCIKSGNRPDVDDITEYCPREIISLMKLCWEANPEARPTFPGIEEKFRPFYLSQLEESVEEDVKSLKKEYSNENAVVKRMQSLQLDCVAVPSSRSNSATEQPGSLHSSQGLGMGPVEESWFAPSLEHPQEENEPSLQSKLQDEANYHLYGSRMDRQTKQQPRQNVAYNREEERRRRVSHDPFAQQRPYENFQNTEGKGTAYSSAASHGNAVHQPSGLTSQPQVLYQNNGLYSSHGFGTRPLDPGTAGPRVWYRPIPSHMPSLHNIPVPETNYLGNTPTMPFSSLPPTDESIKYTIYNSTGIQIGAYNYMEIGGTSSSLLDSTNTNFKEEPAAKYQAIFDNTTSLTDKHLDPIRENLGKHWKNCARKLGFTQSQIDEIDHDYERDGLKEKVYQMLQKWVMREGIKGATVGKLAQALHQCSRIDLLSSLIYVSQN
# [40] = molecular target: MEK6 (Homo sapiens, UniProt P52564); assay: biochemical; details: read-out: %Ctrl @ 2000nM
# Chain of MEK6 (P52564 whole entry): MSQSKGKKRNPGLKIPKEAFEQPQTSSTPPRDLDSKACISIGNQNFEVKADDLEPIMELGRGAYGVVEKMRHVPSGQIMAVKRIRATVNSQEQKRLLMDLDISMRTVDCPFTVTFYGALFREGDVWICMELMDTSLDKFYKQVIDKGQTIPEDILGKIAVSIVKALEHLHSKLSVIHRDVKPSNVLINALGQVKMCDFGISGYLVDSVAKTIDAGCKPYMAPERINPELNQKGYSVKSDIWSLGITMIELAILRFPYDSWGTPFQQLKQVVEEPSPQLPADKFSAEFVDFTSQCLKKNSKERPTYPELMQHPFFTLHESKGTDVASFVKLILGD
# [41] = molecular target: MELK (Homo sapiens, UniProt Q14680); assay: biochemical; details: read-out: %Ctrl @ 2000nM
# [42] = molecular target: FGFR3 (Homo sapiens, UniProt P22607); assay: biochemical; details: read-out: %Ctrl @ 2000nM
# [43] = molecular target: WEE1 (Homo sapiens, UniProt P30291); assay: biochemical; details: read-out: %Ctrl @ 2000nM
# Chain of ULK1 (O75385 whole entry): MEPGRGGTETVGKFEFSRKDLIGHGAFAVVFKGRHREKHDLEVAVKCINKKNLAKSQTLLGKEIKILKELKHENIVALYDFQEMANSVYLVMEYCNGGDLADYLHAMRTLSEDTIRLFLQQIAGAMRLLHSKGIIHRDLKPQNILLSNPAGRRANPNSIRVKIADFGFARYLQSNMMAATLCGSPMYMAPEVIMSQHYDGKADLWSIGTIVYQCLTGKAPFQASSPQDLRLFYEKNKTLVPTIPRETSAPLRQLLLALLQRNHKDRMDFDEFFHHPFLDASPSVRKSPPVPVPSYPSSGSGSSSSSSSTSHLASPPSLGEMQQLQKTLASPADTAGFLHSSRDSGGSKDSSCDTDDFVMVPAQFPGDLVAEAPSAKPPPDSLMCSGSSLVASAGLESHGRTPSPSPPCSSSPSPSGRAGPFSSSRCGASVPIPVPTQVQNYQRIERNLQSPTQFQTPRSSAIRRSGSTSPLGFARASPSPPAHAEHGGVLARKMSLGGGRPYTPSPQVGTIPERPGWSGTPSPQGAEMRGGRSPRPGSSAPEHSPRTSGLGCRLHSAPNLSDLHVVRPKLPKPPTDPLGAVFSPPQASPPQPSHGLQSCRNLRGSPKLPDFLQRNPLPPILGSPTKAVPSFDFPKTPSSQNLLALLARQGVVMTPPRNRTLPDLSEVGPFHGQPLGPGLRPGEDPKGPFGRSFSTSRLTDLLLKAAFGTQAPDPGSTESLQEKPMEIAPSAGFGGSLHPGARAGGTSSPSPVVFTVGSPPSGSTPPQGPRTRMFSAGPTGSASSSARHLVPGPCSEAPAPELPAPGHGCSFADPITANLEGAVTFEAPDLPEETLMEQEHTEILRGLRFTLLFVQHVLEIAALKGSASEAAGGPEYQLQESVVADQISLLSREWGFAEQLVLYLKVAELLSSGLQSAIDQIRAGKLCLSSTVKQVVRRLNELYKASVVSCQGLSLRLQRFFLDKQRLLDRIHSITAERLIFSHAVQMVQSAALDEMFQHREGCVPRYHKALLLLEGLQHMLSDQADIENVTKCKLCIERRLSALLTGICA
structure (smiles),measurement,setting,value
"CC(C)COC(=O)c1[nH]c2ccc(F)cc2c1-c1cn(CC2CCN(CCNS(=O)(=O)c3ccc(CC(C)C)cc3)CC2)nn1 [AB668, isobutyl 5-fluoro-3-(1-((1-(2-((4-isobutylphenyl)sulfonamido)ethyl)piperidin-4-yl)methyl)-1H-1,2,3-triazol-4-yl)-1H-indole-2-carboxylate]",remaining activity at 2 µM,[1],90%
same,remaining activity at 2 µM,[2],77%
same,remaining activity at 2 µM,[3],100%
same,remaining activity at 2 µM,[4],100%
same,remaining activity at 2 µM,[5],93%
same,remaining activity at 2 µM,[6],89%
same,remaining activity at 2 µM,[7],93%
same,remaining activity at 2 µM,[8],86%
same,remaining activity at 2 µM,[9],92%
same,remaining activity at 2 µM,[10],100%
same,remaining activity at 2 µM,[11],96%
same,remaining activity at 2 µM,[12],100%
same,remaining activity at 2 µM,[13],95%
same,remaining activity at 2 µM,[14],94%
same,remaining activity at 2 µM,[15],91%
same,pAKTS129 / AKT band quantification,[16],0.8 and 0.5
same,remaining activity at 2 µM,[17],100%
same,remaining activity at 2 µM,[18],100%
same,remaining activity at 2 µM,[19],92%
same,remaining activity at 2 µM,[20],100%
same,remaining activity at 2 µM,[21],72%
same,remaining activity at 2 µM,[22],100%
same,remaining activity at 2 µM,[23],91%
same,remaining activity at 2 µM,[24],80%
same,remaining activity at 2 µM,[25],84%
same,remaining activity at 2 µM,[26],100%
same,remaining activity at 2 µM,[27],88%
same,remaining activity at 2 µM,[28],67%
same,remaining activity at 2 µM,[29],95%
same,remaining activity at 2 µM,[30],93%
same,remaining activity at 2 µM,[31],98%
same,remaining activity at 2 µM,[32],91%
same,remaining activity at 2 µM,[33],84%
same,IC50,[34],> 100 µM
same,remaining activity at 2 µM,[35],90%
same,remaining activity at 2 µM,[36],100%
same,remaining activity at 2 µM,[37],85%
same,remaining activity at 2 µM,[38],85%
same,remaining activity at 2 µM,[39],96%
same,remaining activity at 2 µM,[40],83%
same,remaining activity at 2 µM,[41],100%
same,remaining activity at 2 µM,[42],89%
same,remaining activity at 2 µM,[43],96%

# Reference: article PMC10838953
